According to patent US20200253877A1, “GEMCABENE, PHARMACEUTICALLY ACCEPTABLE SALTS THEREOF, COMPOSITIONS THEREOF AND METHODS OF USE THEREFOR” (NEUROBO PHARMACEUTICALS, INC., priority 2018, published 2020):

System: hepatic mRNA expression in STAM™ mice
Assay: Murine STAM model of NASH-HCC: hepatic gene expression by quantitative RT-PCR
Format: in vivo, mouse
Details: n = 8, STAM mice, normalized to non-treated group
Experimental: A study was performed to evaluate the efficacy of gemcabene calcium salt hydrate Crystal Form 1 having a PSD90 of 52 μm as measured by laser light diffraction, in treating non-alcoholic steatosis hepatitis (NASH) in the murine STAM™ model of NASH-HCC.
Briefly, two-day old neonatal C57BL/6 male mice were administered low-dose streptozotocin (STZ), and were subsequently fed a HFC diet from 4 weeks of age. In this model, the mice typically develop liver steatosis and diabetes, reaching steatohepatitis within 3 weeks, followed by cirrhosis within 8 weeks, and carcinoma within 16 weeks. In the current study, mice were administered daily oral gemcabene calcium salt hydrate Crystal Form 1 starting at week 6 of age and were sacrificed at week 9. […] These STAM™ groups were orally administered from week 6 one of the following: water-vehicle, gemcabene calcium salt hydrate Crystal Form 1 at 30, 100 and 300 mg/kg daily, or telmisartan ([…]®) 10 mg/kg daily. […] All groups were sacrificed at week 9. Vehicle, gemcabene calcium salt hydrate Crystal Form 1, or telmisartan were administered by oral gavage once daily.
Various gene expression markers of liver metabolism were evaluated by Real-Time PCR (RT-PCR) in all mouse groups. Total RNA was extracted from liver samples using RNAiso (Takara Bio, Japan) according to the manufacturer's instructions. […] of RNA was reverse-transcribed using a reaction mixture containing 4.4 mM MgCl2 (F. Hoffmann-La Roche, Switzerland), 40 U RNase inhibitor (Toyobo, Japan), 0.5 mM dNTP (Promega, USA), 6.28 μM random hexamer (Promega), 5×first strand buffer (Promega), 10 mM dithiothreitol (Invitrogen, USA) and 200 U MMLV-RT (Invitrogen) in a final volume of 20 μL. The reaction was carried out for 1 hour at 37° C., followed by 5 minutes at 99° C. Real-time PCR was performed using real-time PCR DICE and SYBR premix Taq (Takara Bio). To calculate the relative mRNA expression level, the expression of each gene was normalized to that of reference gene 36B4 (gene symbol: RplpO). Information of PCR-primer sets is described in Tables 37A-37C. Statistical analyses were performed using the Bonferroni Multiple Comparison Test on GraphPad Prism 6 (GraphPad Software Inc., USA). P values <0.05 were considered statistically significant. Results are expressed as mean±SD.
In order to calculate the relative mRNA expression level, the expression of each gene was normalized to that of the reference gene 36B4 (gene symbol: RplpO). The gene expression levels were measured by quantitative RT-PCR. Results were normalized with values for the vehicle-treated normal group. […] Gemcabene calcium salt hydrate Crystal Form 1 (PSD90=52 μm) modulated the mRNA expression of many hepatic genes that play a significant role in the liver homeostasis and injury.

Compound: CC(C)(CCCCOCCCCC(C)(C)C(=O)O)C(=O)O [gemcabene, 6-(5-carboxy-5-methyl-hexyloxy)-2,2-dimethyl-hexanoic acid]
- ACC1 gene expression (mean ± SD) (30 mg/kg): 1.0 ± 0.1
- ACC2 gene expression (mean ± SD) (30 mg/kg): 0.6 ± 0.2
- ADH-4 gene expression (mean ± SD) (30 mg/kg): 0.8 ± 0.2
- ANGPTL3 gene expression (mean ± SD) (30 mg/kg): 0.7 ± 0.2
- ANGPTL4 gene expression (mean ± SD) (30 mg/kg): 2.9 ± 0.5
- ANGPTL8 gene expression (mean ± SD) (30 mg/kg): 0.3 ± 0.1
- ApoC-III gene expression (mean ± SD) (30 mg/kg): 0.7 ± 0.1
- CCR2 gene expression (mean ± SD) (30 mg/kg): 3.3 ± 1.0
- CCR5 gene expression (mean ± SD) (30 mg/kg): 2.4 ± 0.9
- CRP gene expression (mean ± SD) (30 mg/kg): 0.9 ± 0.2
- CXCL1/KC gene expression (mean ± SD) (30 mg/kg): 0.8 ± 0.4
- Fetuin-A gene expression (mean ± SD) (30 mg/kg): 1.1 ± 0.4
- IL-1β gene expression (mean ± SD) (30 mg/kg): 1.0 ± 0.5
- IL-6 gene expression (mean ± SD) (30 mg/kg): 4.6 ± 4.7
- LDL receptor gene expression (mean ± SD) (30 mg/kg): 0.9 ± 0.2
- LPL gene expression (mean ± SD) (30 mg/kg): 3.8 ± 0.9
- MCP-1 gene expression (mean ± SD) (30 mg/kg): 3.2 ± 1.5
- MIP-1β gene expression (mean ± SD) (30 mg/kg): 5.4 ± 3.2
- MMP-2 gene expression (mean ± SD) (30 mg/kg): 1.7 ± 0.5
- NF-κB gene expression (mean ± SD) (30 mg/kg): 1.3 ± 0.2
- PNPLA3 gene expression (mean ± SD) (30 mg/kg): 0.3 ± 0.1
- SCD1 gene expression (mean ± SD) (30 mg/kg): 0.2 ± 0.1
- SREBP-1 gene expression (mean ± SD) (30 mg/kg): 0.9 ± 0.2
- Sulf-2 gene expression (mean ± SD) (30 mg/kg): 5.1 ± 1.1
- TIMP-1 gene expression (mean ± SD) (30 mg/kg): 9.9 ± 4.9
- TNF-α gene expression (mean ± SD) (30 mg/kg): 4.0 ± 1.8
- α-SMA gene expression (mean ± SD) (30 mg/kg): 2.6 ± 0.6
- ACC1 gene expression (mean ± SD) (100 mg/kg): 0.7 ± 0.1
- ACC2 gene expression (mean ± SD) (100 mg/kg): 0.4 ± 0.1
- ADH-4 gene expression (mean ± SD) (100 mg/kg): 0.6 ± 0.1
- ANGPTL3 gene expression (mean ± SD) (100 mg/kg): 0.4 ± 0.1
- ANGPTL4 gene expression (mean ± SD) (100 mg/kg): 1.6 ± 0.3
- ANGPTL8 gene expression (mean ± SD) (100 mg/kg): 0.4 ± 0.1
- ApoC-III gene expression (mean ± SD) (100 mg/kg): 0.5 ± 0.0
- CCR2 gene expression (mean ± SD) (100 mg/kg): 1.6 ± 0.4
- CCR5 gene expression (mean ± SD) (100 mg/kg): 1.4 ± 0.3
- CRP gene expression (mean ± SD) (100 mg/kg): 0.6 ± 0.1
- CXCL1/KC gene expression (mean ± SD) (100 mg/kg): 0.2 ± 0.1
- Fetuin-A gene expression (mean ± SD) (100 mg/kg): 0.7 ± 0.1
- IL-1β gene expression (mean ± SD) (100 mg/kg): 1.1 ± 0.5
- IL-6 gene expression (mean ± SD) (100 mg/kg): 0.9 ± 0.3
- LDL receptor gene expression (mean ± SD) (100 mg/kg): 0.9 ± 0.2
- LPL gene expression (mean ± SD) (100 mg/kg): 7.4 ± 0.9
- MCP-1 gene expression (mean ± SD) (100 mg/kg): 1.7 ± 0.7
- MIP-1β gene expression (mean ± SD) (100 mg/kg): 2.3 ± 0.9
- MMP-2 gene expression (mean ± SD) (100 mg/kg): 0.5 ± 0.2
- NF-κB gene expression (mean ± SD) (100 mg/kg): 0.9 ± 0.1
- PNPLA3 gene expression (mean ± SD) (100 mg/kg): 0.2 ± 0.1
- SCD1 gene expression (mean ± SD) (100 mg/kg): 0.3 ± 0.1
- SREBP-1 gene expression (mean ± SD) (100 mg/kg): 0.9 ± 0.2
- Sulf-2 gene expression (mean ± SD) (100 mg/kg): 3.8 ± 0.7
- TIMP-1 gene expression (mean ± SD) (100 mg/kg): 3.8 ± 1.6
- TNF-α gene expression (mean ± SD) (100 mg/kg): 2.0 ± 0.8
- α-SMA gene expression (mean ± SD) (100 mg/kg): 2.4 ± 0.9
- ACC1 gene expression (mean ± SD) (300 mg/kg): 0.8 ± 0.1
- ACC2 gene expression (mean ± SD) (300 mg/kg): 0.5 ± 0.1
- ADH-4 gene expression (mean ± SD) (300 mg/kg): 0.5 ± 0.1
- ANGPTL3 gene expression (mean ± SD) (300 mg/kg): 0.4 ± 0.1
- ANGPTL4 gene expression (mean ± SD) (300 mg/kg): 1.7 ± 0.3
- ANGPTL8 gene expression (mean ± SD) (300 mg/kg): 0.2 ± 0.1
- ApoC-III gene expression (mean ± SD) (300 mg/kg): 0.4 ± 0.1
- CCR2 gene expression (mean ± SD) (300 mg/kg): 1.7 ± 0.7
- CCR5 gene expression (mean ± SD) (300 mg/kg): 1.3 ± 0.3
- CRP gene expression (mean ± SD) (300 mg/kg): 0.5 ± 0.1
- CXCL1/KC gene expression (mean ± SD) (300 mg/kg): 0.2 ± 0.1
- Fetuin-A gene expression (mean ± SD) (300 mg/kg): 0.7 ± 0.1
- IL-1β gene expression (mean ± SD) (300 mg/kg): 0.7 ± 0.3
- IL-6 gene expression (mean ± SD) (300 mg/kg): 0.6 ± 0.2
- LDL receptor gene expression (mean ± SD) (300 mg/kg): 0.8 ± 0.1
- LPL gene expression (mean ± SD) (300 mg/kg): 6.9 ± 1.1
